Legend:
[1] = target: Tyrosine-protein kinase CSK (Homo sapiens, UniProt P41240); assay: CSK Inhibition Assay
Experimental: Test compound was dissolved in DMSO at 10 mM. 45 uL of compound was transferred into a 384-well compound source plate (LABCYTE cat #P-05525) and serially diluted at 1:3 ratio to create a 11-point dilutions. The same volume of DMSO was adopted as high control. 20 nL of these compounds DMSO dilutes were dispensed into a new 384-well assay plate by Echo 550. […] 15 uL of kinase assay buffer containing CSK protein and substrate was transferred to assay plate and incubated at RT for 30 minutes. Kinase assay buffer supplemented with substrate peptides was employed as low control to monitor the background. 4 μM of ATP was prepared in kinase assay buffer and 5 μL of ATP solution was added to each well to start the reaction. The assay plate was incubated at 25° C. for 90 minutes and the reaction was stopped by adding 40 μL of 0.5 M EDTA.

[2] = target: Tyrosine-protein kinase Lck (Homo sapiens, UniProt P06239); assay: LCK Inhibition Assay
Experimental: Test compound was dissolved in DMSO at 10 mM. 45 uL of compound was transfer into a 384-well compound source plate (LABCYTE cat #P-05525) and serially diluted at 1:3 ratio to create a 11-point dilutions. The same volume of DMSO was adopted as high control. 20 nL of these compounds DMSO dilutes were dispensed into a new 384-well assay plate by Echo 550. LCK protein (0.50 nM, Cama Biosciences, cat #08-170), florescent labeled substrate FLPeptide4 (2 μM, PerkinElmer, cat #760348) was prepared in kinase assay buffer (50 mM HEPES (pH 7.5), 10 mM MgCl2, 0.01% Brij-35, 2 mM DTT and 0.005 mg/ml BSA). 15 uL of kinase assay buffer containing LCK protein and substrate was transferred to assay plate and incubate at RT for 30 minutes. Kinase assay buffer supplemented with substrate peptides was employed as low control to monitor the background. 400 μM ATP was prepared in kinase assay buffer and 5 μL of ATP solution was added to each well to start the reaction. The assay plate was incubated at 25° C. for 90 minutes and the reaction was stopped by adding 40 μL of 0.5 M EDTA.

Chain of Tyrosine-protein kinase CSK (P41240 whole entry): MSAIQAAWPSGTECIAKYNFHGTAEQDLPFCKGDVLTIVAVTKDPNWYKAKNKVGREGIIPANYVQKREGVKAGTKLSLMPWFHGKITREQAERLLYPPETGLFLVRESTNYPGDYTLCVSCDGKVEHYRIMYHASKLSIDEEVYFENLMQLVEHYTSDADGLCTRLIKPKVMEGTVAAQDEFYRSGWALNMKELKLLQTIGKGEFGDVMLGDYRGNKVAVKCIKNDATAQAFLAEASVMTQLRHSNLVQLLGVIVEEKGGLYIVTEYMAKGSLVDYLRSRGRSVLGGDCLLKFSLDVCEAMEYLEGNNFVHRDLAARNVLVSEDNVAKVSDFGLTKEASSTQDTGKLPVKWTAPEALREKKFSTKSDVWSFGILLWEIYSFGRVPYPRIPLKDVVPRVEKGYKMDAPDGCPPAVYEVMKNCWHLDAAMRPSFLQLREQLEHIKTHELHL
Chain of Tyrosine-protein kinase Lck (P06239 whole entry): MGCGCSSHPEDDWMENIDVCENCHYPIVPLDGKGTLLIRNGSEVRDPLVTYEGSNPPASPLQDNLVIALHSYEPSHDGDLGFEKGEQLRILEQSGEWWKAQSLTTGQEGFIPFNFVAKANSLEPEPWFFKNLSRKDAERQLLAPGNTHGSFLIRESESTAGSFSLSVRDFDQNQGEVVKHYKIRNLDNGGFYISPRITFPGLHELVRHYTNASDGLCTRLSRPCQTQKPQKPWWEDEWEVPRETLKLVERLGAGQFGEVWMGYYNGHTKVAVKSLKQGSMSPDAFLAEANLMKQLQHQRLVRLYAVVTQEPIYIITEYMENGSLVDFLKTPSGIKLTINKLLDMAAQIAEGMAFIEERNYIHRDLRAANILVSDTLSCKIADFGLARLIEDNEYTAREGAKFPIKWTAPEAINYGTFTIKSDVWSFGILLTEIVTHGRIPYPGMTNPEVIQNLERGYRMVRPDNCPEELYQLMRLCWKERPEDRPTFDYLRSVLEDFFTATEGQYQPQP

Compound | IC50 [1] [nM] | IC50 [2] [nM]
COc1cc(NS(=O)(=O)c2c(F)cccc2F)c(F)c(-c2nc(-c3ccccc3)sc2-c2ccnc(N)n2)c1 [US12427146, Compound 23] | 4.1 | < 100
COc1cc(F)c(S(=O)(=O)Nc2cccc(-c3nc(-c4ccccc4)sc3-c3ccnc(N)n3)c2F)c(F)c1 [US12427146, Compound 22] | 44.8 | > 1000
Nc1nccc(-c2sc(-c3ccccc3)nc2-c2cccc(NS(=O)(=O)c3ccc4c(c3)CNC4)c2F)n1 [US12427146, Compound 82] | > 10000 | –
Nc1nccc(-c2sc(-c3ccccc3)nc2-c2cc(F)cc(NS(=O)(=O)c3c(F)cccc3F)c2)n1 [US12427146, Compound 20] | 132 | > 1000
COc1cc(NS(=O)(=O)c2c(F)cccc2F)cc(-c2nc(-c3cncc(F)c3)sc2-c2ccnc(N)n2)c1 [US12427146, Compound 21] | 25.2 | –
Nc1nccc(-c2sc(-c3ccccc3)nc2-c2cccc(NS(=O)(=O)c3ccc4c(c3)CNC4=O)c2F)n1 [US12427146, Compound 81] | 4510 | –

From BindingDB's records for patent US12427146 (Inventisbio Co., 2025)
